Results taken from patent publication US10538555B2, “Macrocyclic inhibitors of the PD-1/PD-L1 and CD80(B7-1)/PD-L1 protein/protein interactions” (BRISTOL-MYERS SQUIBB COMPANY, priority 2014, dated 2020).
Where two headings read alike, the source gives them in different places. Where a SMILES comes first, the peptide text is derived from it. Bridges are numbered along the chain shown (N, C = ends). [ ]: non-standard residue; d: D form. ξ: configuration not given here. Trp(1-CH2COOH) = N[C@@H](Cc1cn(CC(=O)O)c2ccccc12)C(=O)O; Trp(βS-Me) = C[C@@H](c1c[nH]c2ccccc12)[C@H](N)C(=O)O; Phe(3,4,5-F3) = N[C@@H](Cc1cc(F)c(F)c(F)c1)C(=O)O; Phe(3,4-Cl2) = N[C@@H](Cc1ccc(Cl)c(Cl)c1)C(=O)O; Pro(4R-Me) = C[C@H]1CN[C@H](C(=O)O)C1; d(cisHyp) = O=C(O)[C@H]1C[C@@H](O)CN1; Bta = N[C@@H](Cc1csc2ccccc12)C(=O)O; Hyp = O=C(O)[C@@H]1C[C@@H](O)CN1; NMeF = CN[C@@H](Cc1ccccc1)C(=O)O; dHyp = O=C(O)[C@H]1C[C@H](O)CN1; NMehSer = CN[C@@H](CCO)C(=O)O; NMeNle = CCCC[C@H](NC)C(=O)O; Pip = O=C(O)[C@@H]1CCCCN1; hSer = N[C@@H](CCO)C(=O)O; NMeA = CN[C@@H](C)C(=O)O; Orn = NCCC[C@H](N)C(=O)O; dNMeA = CN[C@H](C)C(=O)O; Dab = NCC[C@H](N)C(=O)O; Dap = NC[C@H](N)C(=O)O; ξC = NC(CS)C(=O)O; Sar = CNCC(=O)O

Molecular target: T1, Human PD-L1/PD-1 (Homo sapiens, UniProt Q9NZQ7)
T1 construct: TVMV protease cleavage site (C); made in house; host or cells: HEK293T cells
T1 sequence (Q9NZQ7 with tags, fused parts or gaps): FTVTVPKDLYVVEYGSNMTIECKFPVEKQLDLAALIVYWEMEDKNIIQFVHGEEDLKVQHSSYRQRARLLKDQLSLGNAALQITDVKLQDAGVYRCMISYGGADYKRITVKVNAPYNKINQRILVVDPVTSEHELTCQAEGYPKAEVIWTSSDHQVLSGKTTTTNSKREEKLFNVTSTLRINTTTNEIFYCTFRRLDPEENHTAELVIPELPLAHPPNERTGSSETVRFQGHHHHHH
Test: HTRF Human PD-L1/PD-1 binding assay (PD-1-Ig/PD-L1-His)
Settings: PD-L1-His 10 nM, PD-1-Ig 20 nM
Text: Methods for Testing the Ability of Macrocyclic Peptides to Compete for the Binding of PD-1 to PD-L1 Using Homogenous Time-Resolved Fluorescence (HTRF) Binding Assays
The ability of the macrocyclic peptides of the present disclosure to bind to PD-L1 was investigated using a PD-1/PD-L1 Homogenous Time-Resolved Fluorescence (HTRF) binding assay.
Homogenous Time-Resolved Fluorescence (HTRF) Assays of Binding of Soluble PD-1 to Soluble PD-L1. Soluble PD-1 and soluble PD-L1 refers to proteins with carboxyl-end truncations that remove the transmembrane-spanning regions and are fused to heterologous sequences, specifically the Fc portion of the human immunoglobuling G sequence (Ig) or the hexahistidine epitope tag (His). All binding studies were performed in an HTRF assay buffer consisting of dPBS supplemented with 0.1% (w/v) bovine serum albumin and 0.05% (v/v) Tween-20. For the PD-1-Ig/PD-L1-His binding assay, inhibitors were pre-incubated with PD-L1-His (10 nM final) for 15 m in 4 μl of assay buffer, followed by addition of PD-1-Ig (20 nM final) in 1 μl of assay buffer and further incubation for 15 m. PD-L1 fusion proteins from either human, cynomolgus macaques, or mouse were used. HTRF detection was achieved using europium crypate-labeled anti-Ig monoclonal antibody (1 nM final) and allophycocyanin (APC) labeled anti-His monoclonal antibody (20 nM final). Antibodies were diluted in HTRF detection buffer and 5 μl was dispensed on top of binding reaction. The reaction was allowed to equilibrate for 30 minutes and signal (665 nm/620 nm ratio) was obtained using an EnVision fluorometer. Additional binding assays were established between PD-1-Ig/PD-L2-His (20 and 5 nM, respectively), CD80-His/PD-L1-Ig (100 and 10 nM, respectively) and CD80-His/CTLA4-Ig (10 and 5 nM, respectively). Competition studies between biotinylated Compound No. 71 and human PD-L1-His were performed as follows. Macrocyclic peptide inhibitors were pre-incubated with PD-L1-His (10 nM final) for 60 minutes in 4 μl of assay buffer followed by addition of biotinylated Compound No. 71 (0.5 nM final) in 1 μl of assay buffer. Binding was allowed to equilibrate for 30 minutes followed by addition of europium crypated labeled Streptavidin (2.5 pM final) and APC-labeled anti-His (20 nM final) in 5 μl of HTRF buffer. The reaction was allowed to equilibrate for 30 m and signal (665 nm/620 nm ratio) was obtained using an EnVision fluorometer.
Recombinant Proteins. Carboxyl-truncated human PD-1 (amino acids 25-167) with a C-terminal human Ig epitope tag [hPD-1 (25-167)-3S-IG] and human PD-L1 (amino acids 18-239) with a C-terminal His epitope tag [hPD-L1([…])-tobacco vein mottling virus protease cleavage site (TVMV)-His] were expressed in HEK293T cells and purified sequentially by rProteinA affinity chromatography and size exclusion chromatography.

[1] = class symbol, read-out: HTRF Human PD-L1/PD-1 Binding Assay IC50 Range

SMILES	IC50 [1]	IC50 (read-out: HTRF Human PD-L1/PD-1 Binding Assay IC50)
CCCC[C@H]1C(=O)N(C)CC(=O)N[C@@H](CC(=O)O)C(=O)N[C@@H](C(C)C)C(=O)N(C)[C@@H](Cc2ccccc2)C(=O)N[C@@H](Cc2ccc(O)cc2)C(=O)N(C)CC(=O)N[C@@H](Cc2c[nH]c3ccccc23)C(=O)N[C@@H](Cc2ccc(O)cc2)C(=O)N[C@@H](CC(C)C)C(=O)N[C@H](C(=O)NCC(N)=O)CSCC(=O)N[C@@H](Cc2ccc(Cl)c(Cl)c2)C(=O)N(C)[C@@H](Cc2ccccc2)C(=O)N1C [Example 3246] ({CH2CO}-[Phe(3,4-Cl2)][NMeF][NMeNle][Sar]DV[NMeF]Y[Sar]WYLCG-NH2; thioether N-13)	10 to 99.9 nM	
CCCC[C@H]1C(=O)N2C[C@@H](O)C[C@@H]2C(=O)N[C@@H](CC(=O)O)C(=O)N[C@@H](C(C)C)C(=O)N(C)[C@@H](Cc2ccccc2)C(=O)N[C@@H](Cc2ccc(O)cc2)C(=O)N2CCC[C@@H]2C(=O)N[C@@H]([C@@H](C)c2c[nH]c3ccccc23)C(=O)N[C@@H](Cc2ccc(O)cc2)C(=O)N[C@@H](CC(C)C)C(=O)N[C@H](C(=O)NCC(N)=O)CSCC(=O)N[C@@H](Cc2cc(F)c(F)c(F)c2)C(=O)N(C)[C@@H](Cc2ccccc2)C(=O)N1C [Example 10551] ({CH2CO}-[Phe(3,4,5-F3)][NMeF][NMeNle][dHyp]DV[NMeF]Y[dP][Trp(βS-Me)]YLCG-NH2; thioether N-13)	1 to 9.9 nM	
CCCC[C@H]1C(=O)N(C)[C@@H](CCCC)C(=O)N[C@@H](CCCNC(=N)N)C(=O)NC(C(=O)NCC(N)=O)CSCC(=O)N[C@@H](Cc2ccc(O)cc2)C(=O)N(C)[C@@H](C)C(=O)N[C@@H](CC(N)=O)C(=O)N2CCC[C@H]2C(=O)N[C@@H](CO)C(=O)N[C@@H](CO)C(=O)N2C[C@H](O)C[C@H]2C(=O)N[C@@H](Cc2c[nH]c3ccccc23)C(=O)N[C@@H](CO)C(=O)N[C@@H](Cc2csc3ccccc23)C(=O)N1C (stereo partly drawn) [Example 10016] ({CH2CO}-Y[NMeA]NPSS[Hyp]WS[Bta][NMeNle][NMeNle]R[ξC]G-NH2; thioether N-14)	10 to 99.9 nM	
CC(C)[C@@H]1NC(=O)[C@H](CC(=O)O)NC(=O)[C@@H](C)N(C)C(=O)[C@H](C)N(C)C(=O)[C@H](Cc2ccccc2)N(C)C(=O)[C@H](Cc2cc(F)c(F)c(F)c2)NC(=O)CSC[C@@H](C(=O)NCC(N)=O)NC(=O)[C@H](CCCN)NC(=O)[C@H](Cc2ccc(O)cc2)NC(=O)[C@H](Cc2c[nH]c3ccccc23)NC(=O)[C@@H](C)N(C)C(=O)[C@H](Cc2ccc(O)cc2)NC(=O)[C@H](Cc2ccccc2)N(C)C1=O [Example 9193] ({CH2CO}-[Phe(3,4,5-F3)][NMeF][NMeA][dNMeA]DV[NMeF]Y[dNMeA]WY[Orn]CG-NH2; thioether N-13)	1 to 9.9 nM	
CCCC[C@H]1C(=O)N(C)[C@@H](CCOC)C(=O)N[C@@H](CCC(=O)O)C(=O)N[C@H](C(=O)NCC(N)=O)CSCC(=O)N[C@@H](Cc2ccc(O)cc2)C(=O)N(C)[C@@H](C)C(=O)N[C@@H](CC(N)=O)C(=O)N2CCC[C@H]2C(=O)N[C@@H](Cc2c[nH]cn2)C(=O)N[C@@H](CCC(N)=O)C(=O)N2C[C@H](O)C[C@H]2C(=O)N[C@@H](Cc2c[nH]c3ccccc23)C(=O)N[C@@H](CO)C(=O)N[C@@H](Cc2c[nH]c3ccccc23)C(=O)N1C [Example 10147] ({CH2CO}-Y[NMeA]NPHQ[Hyp]WSW[NMeNle][NMehSer](Me)ECG-NH2; thioether N-14)	1 to 9.9 nM	
CCCC[C@H]1C(=O)N(C)[C@@H](CCCC)C(=O)N[C@@H](CCC(=O)O)C(=O)N[C@H](C(=O)NCC(N)=O)CSCC(=O)N[C@@H](Cc2ccc(O)cc2)C(=O)N(C)[C@@H](C)C(=O)N[C@@H](CC(=O)O)C(=O)N2CCC[C@H]2C(=O)N[C@@H](Cc2c[nH]cn2)C(=O)N[C@@H](CCC(N)=O)C(=O)N2C[C@H](O)C[C@H]2C(=O)N[C@@H](Cc2c[nH]c3ccccc23)C(=O)N[C@@H](CCN)C(=O)N[C@@H](Cc2c[nH]c3ccccc23)C(=O)N1C [Example 5218] ({CH2CO}-Y[NMeA]DPHQ[Hyp]W[Dab]W[NMeNle][NMeNle]ECG-NH2; thioether N-14)	10 to 99.9 nM	
CCCC[C@H]1C(=O)N2C[C@H](O)C[C@@H]2C(=O)N[C@@H](CC(=O)O)C(=O)N[C@@H](C(C)C)C(=O)N(C)[C@@H](Cc2ccccc2)C(=O)N[C@@H](CCC(N)=O)C(=O)N2C[C@H](O)C[C@@H]2C(=O)N[C@@H](Cc2c[nH]c3ccccc23)C(=O)N[C@@H](Cc2ccc(O)cc2)C(=O)N[C@@H](CCCN)C(=O)N[C@H](C(=O)NCC(N)=O)CSCC(=O)N[C@@H](Cc2cc(F)c(F)c(F)c2)C(=O)N(C)[C@@H](Cc2ccccc2)C(=O)N1C [Example 9354] ({CH2CO}-[Phe(3,4,5-F3)][NMeF][NMeNle][d(cisHyp)]DV[NMeF]Q[d(cisHyp)]WY[Orn]CG-NH2; thioether N-13)	1 to 9.9 nM	
CCCC[C@H]1C(=O)N(C)[C@@H](CCCC)C(=O)N[C@@H](CCCN)C(=O)N[C@H](C(=O)NCC(N)=O)CSCC(=O)N[C@@H](Cc2ccc(O)cc2)C(=O)N(C)[C@@H](C)C(=O)N[C@@H](CC(=O)O)C(=O)N2CCC[C@H]2C(=O)N[C@@H](Cc2cnc[nH]2)C(=O)N[C@@H](CCC(=O)O)C(=O)N2C[C@H](O)C[C@H]2C(=O)N[C@@H](Cc2c[nH]c3ccccc23)C(=O)N[C@@H](CO)C(=O)N[C@@H](Cc2cn(CC(=O)O)c3ccccc23)C(=O)N1C [Example 6269] ({CH2CO}-Y[NMeA]DPHE[Hyp]WS[Trp(1-CH2COOH)][NMeNle][NMeNle][Orn]CG-NH2; thioether N-14)	10 to 99.9 nM	
CCCC[C@H]1C(=O)N(C)[C@@H](CCCC)C(=O)N[C@@H](CN)C(=O)N[C@H](C(=O)NCC(N)=O)CSCC(=O)N[C@@H](Cc2ccc(O)cc2)C(=O)N2CCCC[C@H]2C(=O)N[C@@H](CC(N)=O)C(=O)N2CCC[C@H]2C(=O)N[C@@H](CN)C(=O)N[C@@H](CC(C)C)C(=O)N2C[C@H](C)C[C@H]2C(=O)N[C@@H](Cc2c[nH]c3ccccc23)C(=O)N[C@@H](CCN)C(=O)N[C@@H](Cc2cn(CC(=O)O)c3ccccc23)C(=O)N1C [Example 1291] ({CH2CO}-Y[Pip]NP[Dap]L[Pro(4R-Me)]W[Dab][Trp(1-CH2COOH)][NMeNle][NMeNle][Dap]CG-NH2; thioether N-14)	1 to 9.9 nM	
CCCC[C@H]1C(=O)N[C@@H](CC(N)=O)C(=O)N2CCC[C@H]2C(=O)N[C@@H](CO)C(=O)N[C@@H](CCO)C(=O)N2C[C@H](O)C[C@H]2C(=O)N[C@@H](Cc2c[nH]c3ccccc23)C(=O)N[C@@H](CCO)C(=O)N[C@@H](Cc2c[nH]c3ccccc23)C(=O)N(C)[C@@H](C)C(=O)N(C)[C@@H](C)C(=O)N[C@@H](CCCN)C(=O)NC(C(=O)NCC(N)=O)CSCC(=O)N[C@@H](Cc2ccc(O)cc2)C(=O)N1C (stereo partly drawn) [Example 10219] ({CH2CO}-Y[NMeNle]NPS[hSer][Hyp]W[hSer]W[NMeA][NMeA][Orn][ξC]G-NH2; thioether N-14)	1000 to 10000 nM	
CCCC[C@H]1C(=O)N[C@@H](CC(N)=O)C(=O)N2CCC[C@H]2C(=O)N[C@@H](CO)C(=O)N[C@@H](CCO)C(=O)N2C[C@H](O)C[C@H]2C(=O)N[C@@H](Cc2c[nH]c3ccccc23)C(=O)N[C@@H](CCN)C(=O)N[C@@H](Cc2c[nH]c3ccccc23)C(=O)N(C)[C@@H](C)C(=O)N(C)[C@@H](C)C(=O)N[C@@H](CCCNC(=N)N)C(=O)NC(C(=O)NCC(N)=O)CSCC(=O)N[C@@H](Cc2ccc(O)cc2)C(=O)N1C (stereo partly drawn) [Example 10200] ({CH2CO}-Y[NMeNle]NPS[hSer][Hyp]W[Dab]W[NMeA][NMeA]R[ξC]G-NH2; thioether N-14)	1000 to 10000 nM	
CCCC[C@H]1C(=O)N[C@@H](CO)C(=O)N[C@H](C(=O)NCC(N)=O)CSCC(=O)N[C@@H](Cc2ccc(O)cc2)C(=O)N(C)[C@@H](C)C(=O)N[C@@H](CC(N)=O)C(=O)N2CCC[C@H]2C(=O)N[C@@H](Cc2c[nH]cn2)C(=O)N[C@@H](CCC(N)=O)C(=O)N2C[C@H](O)C[C@H]2C(=O)N[C@@H](Cc2c[nH]c3ccccc23)C(=O)N[C@@H](CO)C(=O)N[C@@H](Cc2c[nH]c3ccccc23)C(=O)N(C)[C@@H](CCOC)C(=O)N1C [Example 10138] ({CH2CO}-Y[NMeA]NPHQ[Hyp]WSW[NMehSer](Me)[NMeNle]SCG-NH2; thioether N-14)		180 nM
